Test results taken from the NIST ThermoML archive (doi:10.1021/je100175j).

Assays:
[1] = Molar enthalpy of transition or fusion; settings: Crystal; DSC

NC(=O)c1ccccc1 [benzamide]
Settings	vapor or sublimation pressure [kPa]
324.11 K, Crystal, Calculated from knudsen effusion weight loss	0.000108
326.19 K, Crystal, Calculated from knudsen effusion weight loss	0.000136
328.19 K, Crystal, Calculated from knudsen effusion weight loss	0.000169
330.1 K, Crystal, Calculated from knudsen effusion weight loss	0.000215
332.16 K, Crystal, Calculated from knudsen effusion weight loss	0.000267
334.18 K, Crystal, Calculated from knudsen effusion weight loss	0.000332
336.1 K, Crystal, Calculated from knudsen effusion weight loss	0.000415
338.17 K, Crystal, Calculated from knudsen effusion weight loss	0.000513
340.19 K, Crystal, Calculated from knudsen effusion weight loss	0.000634
342.11 K, Crystal, Calculated from knudsen effusion weight loss	0.000794
344.18 K, Crystal, Calculated from knudsen effusion weight loss	0.000981
344.8 K, Crystal, Closed cell (Static) method	0.0011
346.18 K, Crystal, Calculated from knudsen effusion weight loss	0.001205
346.78 K, Crystal, Closed cell (Static) method	0.00135
348.77 K, Crystal, Closed cell (Static) method	0.00166
350.76 K, Crystal, Closed cell (Static) method	0.00204
352.74 K, Crystal, Closed cell (Static) method	0.00247
354.72 K, Crystal, Closed cell (Static) method	0.00301
356.71 K, Crystal, Closed cell (Static) method	0.00366
358.69 K, Crystal, Closed cell (Static) method	0.00438
360.68 K, Crystal, Closed cell (Static) method	0.00534
362.68 K, Crystal, Closed cell (Static) method	0.00631
364.64 K, Crystal, Closed cell (Static) method	0.00769
366.62 K, Crystal, Closed cell (Static) method	0.00906
368.6 K, Crystal, Closed cell (Static) method	0.01095
370.59 K, Crystal, Closed cell (Static) method	0.01299
372.59 K, Crystal, Closed cell (Static) method	0.01556
374.55 K, Crystal, Closed cell (Static) method	0.01829
376.53 K, Crystal, Closed cell (Static) method	0.02177
378.52 K, Crystal, Closed cell (Static) method	0.02586
380.43 K, Liquid, Closed cell (Static) method	0.04263
380.48 K, Crystal, Closed cell (Static) method	0.03068
382.43 K, Liquid, Closed cell (Static) method	0.0481
382.47 K, Crystal, Closed cell (Static) method	0.03596
384.38 K, Liquid, Closed cell (Static) method	0.05455
384.44 K, Crystal, Closed cell (Static) method	0.04227
386.42 K, Crystal, Closed cell (Static) method	0.04949
386.56 K, Liquid, Closed cell (Static) method	0.06285
388.3 K, Liquid, Closed cell (Static) method	0.0702
388.4 K, Crystal, Closed cell (Static) method	0.058
390.38 K, Crystal, Closed cell (Static) method	0.06796
390.51 K, Liquid, Closed cell (Static) method	0.08051
392.28 K, Liquid, Closed cell (Static) method	0.0897
392.32 K, Crystal, Closed cell (Static) method	0.07856
394.32 K, Crystal, Closed cell (Static) method	0.09224
394.51 K, Liquid, Closed cell (Static) method	0.102
396.37 K, Liquid, Closed cell (Static) method	0.1144
398.34 K, Liquid, Closed cell (Static) method	0.129
400.4 K, Liquid, Closed cell (Static) method	0.1453
402.25 K, Liquid, Closed cell (Static) method	0.1597
404.42 K, Liquid, Closed cell (Static) method	0.1805
406.32 K, Liquid, Closed cell (Static) method	0.1992
408.4 K, Liquid, Closed cell (Static) method	0.2257
410.17 K, Liquid, Closed cell (Static) method	0.2479
412.21 K, Liquid, Closed cell (Static) method	0.279
414.31 K, Liquid, Closed cell (Static) method	0.3088
416.23 K, Liquid, Closed cell (Static) method	0.3462
418.37 K, Liquid, Closed cell (Static) method	0.3819
420.28 K, Liquid, Closed cell (Static) method	0.4246
422.2 K, Liquid, Closed cell (Static) method	0.4667
424.23 K, Liquid, Closed cell (Static) method	0.5208
426.18 K, Liquid, Closed cell (Static) method	0.5676
428.17 K, Liquid, Closed cell (Static) method	0.6262
430.15 K, Liquid, Closed cell (Static) method	0.6836
432.17 K, Liquid, Closed cell (Static) method	0.7596
434.17 K, Liquid, Closed cell (Static) method	0.8264
436.2 K, Liquid, Closed cell (Static) method	0.922
438.2 K, Liquid, Closed cell (Static) method	1.002

Settings	Triple point temperature [K]
Crystal, DTA	401.34

Settings	Molar enthalpy of transition or fusion [kcal/mol]
[1]	5.54
